Measured values as given in patent US9949970B2, “Synthesis of new benzothiazole derivatives as potential anti-tubercular agents” (priority 2010, dated 2018).

Test system: M. tuberculosis isolates and drug resistance strains
Type: cell-based, Mycobacterium tuberculosis

Compound | In vitro activity (result in words)
O=[N+]([O-])c1ccc(C=NNc2nc3ccc(OC(F)(F)F)cc3s2)s1 [Compound 3j, 5-nitro-2-thiophenecarbaldehyde 2-(6-trifluoromethoxy-1,3-benzothiazole-2-yl)hydrazone] | good in vitro activity
O=C(NNc1nc2ccc(OC(F)(F)F)cc2s1)c1ccc([N+](=O)[O-])o1 [Compound 4e, N′2-(6-trifluoromethoxy-1,3-benzothiazol-2-yl)-5-nitro-2-furanecarbohydrazide] | good in vitro activity
O=C(Nc1nc2ccc(NC(=O)c3ccc([N+](=O)[O-])o3)cc2s1)c1ccc(F)cc1 [Compound 6f, N2-{2-[(4-fluorobenzoyl)amino]-1,3-benzothiazol-6-yl}-5-nitrofuramide] | good in vitro activity
O=C(Nc1nc2ccc(NC(=O)c3ccc([N+](=O)[O-])o3)cc2s1)c1ccc(Cl)cc1 [Compound 6g, N2-{2-[(4-chlorobenzoyl)amino]-1,3-benzothiazol-6-yl}-5-nitrofuramide] | good in vitro activity
O=C(Nc1ccc2nc(NC(=O)c3ccc(F)cc3F)sc2c1)c1ccc([N+](=O)[O-])o1 [Compound 6i, N2-{2-[(2,4-difluorobenzoyl)amino]-1,3-benzothiazol-6-yl}-5-nitrofuramide] | good in vitro activity
O=C(Nc1nc2ccc(NC(=O)c3ccc([N+](=O)[O-])o3)cc2s1)c1cnccn1 [Compound 6p, N2-(6-{[(5-nitro-2-furyl)carbonyl]amino}-1,3-benzothiazol-2-yl)-2-pyrazinecarboxamide] | good in vitro activity
O=C(Nc1ccc2nc(NC(=O)c3ccc([N+](=O)[O-])o3)sc2c1)c1ccc([N+](=O)[O-])o1 [Compound 8a, N2-(2-{[(5-nitro-2-furyl)carbonyl]amino}-1,3-benzothiazol-6-yl}-5-nitro-2-furamide] | good in vitro activity
N2-(2-{[(E)-3-(4-chlorophenyl)-2-propenoyl]amino}-1,3-benzothiazol-6-yl)-5-nitro-2-furamide [Compound 6w] | good in vitro activity
